One experiment deals with T1, HpHtrA S164A (Helicobacter pylori, UniProt G2J5T2, S164A).
T1 sequence (G2J5T2 18-475 S164A): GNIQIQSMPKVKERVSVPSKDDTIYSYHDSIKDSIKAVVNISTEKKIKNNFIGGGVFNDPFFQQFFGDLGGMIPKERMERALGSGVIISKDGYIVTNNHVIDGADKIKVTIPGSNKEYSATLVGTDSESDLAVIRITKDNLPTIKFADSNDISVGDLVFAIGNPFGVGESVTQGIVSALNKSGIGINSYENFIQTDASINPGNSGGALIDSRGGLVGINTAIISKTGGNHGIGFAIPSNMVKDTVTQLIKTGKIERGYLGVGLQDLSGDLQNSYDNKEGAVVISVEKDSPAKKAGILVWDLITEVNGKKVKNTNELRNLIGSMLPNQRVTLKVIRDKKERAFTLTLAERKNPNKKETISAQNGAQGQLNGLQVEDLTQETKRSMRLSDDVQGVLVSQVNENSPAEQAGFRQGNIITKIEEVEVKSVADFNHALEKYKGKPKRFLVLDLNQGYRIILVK
The experiment in a line: thermal shift assay. Further details: (HpHtrA, G18-K475, UniProt G2J5T2); GST (N, cleaved yes); made in house; host or cells: E. coli BL21. In kind it is binding. The procedure:
Recombinant HpHtrA proteins (wt, S164A, D165A, S166A, D168A) in 50 mM HEPES buffer (pH 7.4) were mixed with SYPRO Orange (Sigma-Aldrich, Vienna, Austria) to final concentrations of 4 µM HpHtrA and 7 × SYPRO Orange in a 96-well PCR plate. […] Fluorescence data was collected using an Applied Bioscience StepOne Plus PCR cycler (Thermo Fisher Scientific, Schwerte, Germany) during a temperature ramp from 25–95 °C (0.5 °C per min) with a 4 min hold at 25 °C and 95 °C. SYPRO Orange binds to exposed hydrophobic regions within the denatured HpHtrA proteins, which increases the fluorescence of the dye[57],[58]. The fluorescence emission signal can then be used to determine the melting temperature of the protein, which is located at the infliction point of the fluorescence signal curve. The experiment was performed in triplicates.

The target in the next experiment is T2, HpHtrA D165A (Helicobacter pylori, UniProt G2J5T2, D165A).
T2 sequence (G2J5T2 18-475 D165A): T1 sequence (G2J5T2 18-475 S164A) with A147S, D148A
Conditions: MST. As to the method:
(§1) Synthesis of 2-Abz-AQRVAFY(3-NO2)-NH2. The peptide was assembled manually on a 20 µmol scale.
(§2) The side-chain protecting groups were Pbf for Arg, and Trt for Gln. Fmoc deprotection was carried out with 25% piperidine in DMF/NMP (80:20, v/v) for 3 min, and 12.5% piperidine in DMF/NMP (80:20, v/v) for 12 min. The double couplings (2x45 min) were accomplished with the mixture Fmoc-AA-OH/HOBt/HBTU/DIPEA (5:5:4.8:10 equiv.). 2 -Boc-Abz-OH was coupled with the same protocol.
(§3) Afterwards, the peptidyl-resin was treated with 25% piperidine in DMF/NMP (80:20, v/v) (2x12 min) to deacylate the 3-nitro-tyrosine side chain. The peptide was simultaneously cleaved from the resin and deprotected by using the mixture TFA/H2O/TIA/EDT/TIS (90:3:1:3:3; Vtot = 1 ml) for about 3 h, precipitated from ice-cold diethyl ether, recovered by centrifugation at 4 °C for 6 min, washed four times with ice-cold diethyl ether, and dried in vacuo. The solid was dissolved in water and lyophilized.
(§4) Microscale thermophoresis .
(§5) D168A, MicroScale Thermophoresis (MST) analysis was performed using the Monolith NT.115 (NanoTemper Technologies). HpHtrA proteases were labeled with red fluorescent dye NT -650-NHS (amine reactive) according to the manufacturer’s protocol. Remaining free dye was removed by buffer exchange column chromatography and proteins were eluted in 50 mM Tris pH 7.4, 150 mM NaCl, 0.04% Tween. 5 nM of labelled HpHtrA was incubated for 15 minutes at RT with decreasing […]
(§6) Measurement was performed with premium treated capillaries (NanoTemper Technologies) and the Monolith NT.115 Microscale Thermophoresis device. Data analysis was performed with MO.Affinity Analysis v2.3 (NanoTemper Technologies) and GraphPad Prism Software (Version 8.0.2). Three independent experiments were […]

Another experiment deals with T3, HpHtrA D168A (Helicobacter pylori, UniProt G2J5T2, D168A).
T3 sequence (G2J5T2 18-475 D168A): T1 sequence (G2J5T2 18-475 S164A) with A147S, D151A
Conditions: MST. As to the method: as §1, §2, §3, §4, §5, §6

The structures appear in SMILES notation. Positions count from the first letter of the chain named.

Turning to `[Cu+2]` [Cu^++, CuCl2], the “thermal destabilization (ΔTm)” value at HpHtrA S164A (higher concentrations of ion) is listed as “destabilized”. For the same compound, the “thermal stabilization (ΔTm)” value at HpHtrA S164A (low/increasing concentrations of ion) is on record as “stabilized”.
For the compound `[Zn+2]` [Zn^++, ZnCl2], the results for the Response amplitude at HpHtrA D165A and at HpHtrA D168A were 3.6 and 2.7, respectively.

The values above are taken from article PMC7324608 (Scientific Reports, 2020).
